# Laboratory results taken from patent publication US10654867B2 (Genentech, Inc., priority 2016, dated 2020).
# Legend:
# [1] = molecular target: T1, estrogen receptor alpha (ESR1) in MCF7 breast cancer cells (Homo sapiens, UniProt P03372); experiment: Breast Cancer Cell ERa High Content Fluorescence Imaging Degradation Assay (ER-alpha MCF7 HCS); format: cell-based; set-up: MCF7 breast cancer cells were seeded on day 1 at a density of 10,000 cells per well; endogenous in cells; host or cells: MCF7 breast cancer cells; conditions: 4 hours, plateau of the maximal effect, DMSO and fulvestrant define 0% and 100% change in ESR1, Table 1b
# T1 sequence (P03372 1-595): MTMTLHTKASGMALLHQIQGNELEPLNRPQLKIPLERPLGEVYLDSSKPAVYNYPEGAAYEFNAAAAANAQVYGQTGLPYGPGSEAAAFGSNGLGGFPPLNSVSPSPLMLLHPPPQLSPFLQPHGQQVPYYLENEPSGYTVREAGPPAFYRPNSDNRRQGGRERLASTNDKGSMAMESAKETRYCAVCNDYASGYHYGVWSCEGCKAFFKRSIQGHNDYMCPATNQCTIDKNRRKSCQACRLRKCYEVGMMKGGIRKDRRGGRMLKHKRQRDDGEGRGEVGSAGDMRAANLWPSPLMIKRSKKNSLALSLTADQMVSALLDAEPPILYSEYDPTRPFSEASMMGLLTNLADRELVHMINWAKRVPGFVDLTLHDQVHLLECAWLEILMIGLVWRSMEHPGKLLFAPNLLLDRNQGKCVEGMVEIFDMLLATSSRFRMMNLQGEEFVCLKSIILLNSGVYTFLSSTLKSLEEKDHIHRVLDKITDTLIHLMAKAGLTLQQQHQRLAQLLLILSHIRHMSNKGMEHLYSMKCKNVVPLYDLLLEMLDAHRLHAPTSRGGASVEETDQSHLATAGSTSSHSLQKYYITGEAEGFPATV
# Protocol: All of the exemplary Formula I, II, and III compounds in Tables 1a and 1b were made and characterized by LCMS [M+H]^+ (liquid chromatography mass spectroscopy) with detection of parent ion. All of the exemplary Formula I, II, and III compounds in Tables 1a and 1b were tested for binding to ERa (Estrogen Receptor alpha) and biological activity according to the assays, protocols, and procedures of Examples 901-907. ER-alpha MCF7 HCS Sinf (%) values in Tables 1a and 1b were measured by the Breast Cancer Cell ERa High Content Fluorescence Imaging Degradation Assay of Example 901. ER-alpha MCF7 HCS EC50 (μM) values in Tables 1a and 1b were measured by the in vitro cell proliferation assays described in Examples 902 and 903. The rat uterine wet weight assays of Examples 906 and 907 allow rapid determination of compound antagonist activity in an ER responsive tissue (immature rat uterus) while competing against the native ER ligand estradiol, i.e. antagonist mode (Ashby, J.; et al (1997) Regulatory toxicology and pharmacology: RTP, 25 (3):226-31). […]
# MCF7 breast cancer cells were seeded on day 1 at a density of 10,000 cells per well in 384 well poly-lysine coated tissue culture plate (Greiner # T-3101-4), in 50 μL/well RPMI (phenol red free), 10% FBS (Charcoal stripped), containing L-glutamine. […] Quantitative fluorescence imaging of ESR1 was carried out using a Cellomics Arrayscan V (Thermo). […]
# [2] = molecular target: T1, estrogen receptor alpha (ESR1) in MCF7 breast cancer cells; experiment: as above; format: cell-based; set-up: endogenous in cells; host or cells: MCF7 breast cancer cells; conditions: 4 hours, plateau of the maximal effect, DMSO and fulvestrant define 0% and 100% change in ESR1, Table 1a
# Outline: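 MCF7 cells in phenol red-free RPMI with 10% charcoal-stripped FBS were exposed 4 h at 37 °C to 10-point 1.8× dilutions (0.05–835 nM final, 0.84% DMSO); fulvestrant served as control. After fixation, ESR1 was immunostained (F10 mAb, Alexa488) with Hoechst nuclear masking, and nuclear ESR1 fluorescence was quantified by imaging.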
ERalpha (WT) MCF7HCS (Sinf) [1],ER-alpha MCF7HCS Sinf [2],Structure (SMILES)
−93,,C[C@@H]1Cc2oc3ccccc3c2[C@@H](c2c(F)cc(OCCN3CC(CF)C3)cc2F)N1CC(F)(F)CO [Example 170]
,−79%,"C[C@H]1Cc2[nH]c3ccccc3c2[C@H](c2c(F)cc(OCCN3CC(CF)C3)cc2F)N1CC(F)(F)CO (single isomer, unassigned) [Example 148]"
,−94.2%,"C[C@@H]1Cc2[nH]c3ccccc3c2[C@@H](c2c(F)cc(OCCN3CC(CF)C3)cc2F)N1CC(C)(C)F [Example 137, (1S,3R)-1-(2,6-difluoro-4-(2-(3-(fluoromethyl)azetidin-1-yl)ethoxy)phenyl)-2-(2-fluoro-2-methylpropyl)-3-methyl-2,3,4,5-tetrahydro-1H-pyrido[4,3-b]indole]"
,−102%,"C[C@@H]1Cc2c(sc3ccccc23)[C@@H](c2c(F)cc(NC3CN(CCCF)C3)cc2F)N1CC(F)(F)CO (single isomer, unassigned) [Example 159]"
,−96.5%,"C[C@@H]1Cc2c([nH]c3ccccc23)[C@]2(CCc3nc(OCCN4CC(CF)C4)ccc32)N1CC(F)(F)F [Example 134, (3′R,5R)-2-(2-(3-(fluoromethyl)azetidin-1-yl)ethoxy)-3′-methyl-2′-(2,2,2-trifluoroethyl)-2′,3′,4′,6,7,9′-hexahydrospiro [cyclopenta[b]pyridine-5,1′-pyrido [3,4-b]indole]]"
,−30%,"C[C@H]1Cc2[nH]c3ccccc3c2[C@H](c2c(F)cc(NC3CN(CCCF)C3)cc2F)N1CC(F)(F)CO (single isomer, unassigned) [Example 154]"
